The values that follow come from article PMC2430196, “Antagonist affinity measurements at the Gi-coupled human histamine H3 receptor expressed in CHO cells” (BMC Pharmacology, 2008).

Structures are written as SMILES. Like-named read-outs stand apart in the source and are kept apart here.

Data set [1] relates to CHO-SPAP cells. Nature of the data set: CRE-SPAP gene transcription in parent CHO-SPAP cells (without the H3 receptor). The data set is classed as cell-based, Chinese hamster. Particulars: Cricetulus griseus, CHO-SPAP cells (without the receptor), read-out: pIC50, CRE-SPAP, low potency component (converted). As to the method:
The response to all ligand used in this study was examined in the parent CHO-SPAP cells (expressing the reporter but not the human H3 receptor). Full 7-point concentration response curves were constructed, in the presence and absence of 4 μM forskolin. […].

The target of data set [2] is T1, human histamine H3 receptor (Homo sapiens, UniProt Q9Y5N1). Nature of the data set: 3H-cAMP accumulation in forskolin-stimulated CHO-H3-SPAP cells. The data set is classed as cell-based. Also on record: secondarily transfected with the full length human histamine H3 receptor; host or cells: CHO-K1 cells with CRE-SPAP reporter (clonal line CHO-H3-SPAP). As to the method:
Cells were grown to confluence in 24-well plates. The media was removed and the cells pre-labelled with ^3H-adenine by incubation with 2 μCi/ml ^3H-adenine in serum-free media (0.5 ml per well) for 3 hours. The ^3H-adenine was then removed and the cells washed by the addition then removal of 1 ml serum-free media. […] Forskolin (final concentration of 10 μM) was then added to all but the basal wells and the plates incubated for 30 minutes. The reaction was terminated by the addition of 50 μl concentrated HCl per well and the plates were then frozen. Later, the plates were thawed and ^3H-cAMP separated from other ^3H-nucleotides by sequential Dowex and alumina column chromatography, as previously described.
When the intrinsic efficacy of the antagonist ligands was examined, the antagonists were incubated for 5 hours at 37°C in order to maximise the chance of detecting any changes in ^3H-cAMP accumulation.
Response=Emax×[A]/IC50+[A]

Data set [3] has as its system CHO-H3-SPAP cells. Nature of the data set: Trypan blue uptake in CHO-H3-SPAP cells. Particulars: 5 hours incubation.
Data set [4] deals with T1, human histamine H3 receptor. Nature of the data set: CRE-SPAP gene transcription in forskolin-stimulated CHO-H3-SPAP cells. Particulars: for pKD values / Schild slope: CRE-SPAP; for Schild slope: 3 antagonist concentrations.
Experimental: (§1) The transfected cells were selected for neomycin resistance (1 mg/ml; for H3 receptor) and hygromycin resistance (200 μg/ml; for CRE-SPAP reporter gene) for 3 weeks and passaged twice during in this period. A single clone was then isolated by dilution cloning to give a clonal line (CHO-H3-SPAP cells). The parent cell CRE-SPAP was also used for control experiments (CHO-SPAP cells).
(§2) Cells were grown to confluence in 96-well tissue culture plates. The cells were then serum starved by removing the media and replacing it with 100 μl serum free media (DMEM/F12 containing 2 mM L-glutamine). […] Where used, pertussis toxin, at a final concentration of 100 ng/ml was added to the serum-free media and thus incubated with the cells for 24 hours. On the day of experimentation, the serum-free media was removed and replaced with 100 μl serum-free media or 100 μl serum-free media containing an antagonist at the final required concentration and the cells incubated for 1 hour. Agonist in 10 μl (diluted in serum free media) was then added to each well and the cells incubated for 10 minutes. Forskolin was then added to all but the basal wells to give a final well concentration of 4 μM and the plates incubated for 5 hours. After 5 hours, the media and all drugs were removed. […] The plates were then incubated at 65°C for 30 minutes to destroy any endogenous phosphatases. After cooling to 37°C, 100 μl 5 mM pNPP in diethanolamine buffer was added to each well and the plates incubated at 37°C in a normal atmosphere until the yellow colour developed.
(§3) Sigmoidal concentration-response curves were fitted to the data using Graphpad Prism 2 and the following equation:
(§4) Antagonist KD values were then calculated from the shift of the agonist concentration responses in the presence of a fixed concentration of antagonist using the following equation:
(§5) where DR (dose ratio) is the ratio of the agonist concentration required to stimulate an identical response in the presence and absence of a fixed concentration of antagonist [B].
(§6) In experiments where three different fixed concentrations of the same antagonist were used, Schild plots were constructed using the following equation:
Log (DR-1) = log [B] - log (KD)
(§7) These points were then fitted to a straight line.
(§8) Partial agonist dissociation constants were therefore estimated according to the method of Stephenson [35] using the following equation:
(§9) KD partial agonist=X.[P]/1−Xwhere X=[A2]−[A1]/[A3]
For data set [5] the target is unchanged.
Experimental: as §1, §2, §3, §4, §5, §6
Log (DR-1) = log [B] - log (KD)
as §7, §8, §9

T1 sequence (Q9Y5N1 whole entry): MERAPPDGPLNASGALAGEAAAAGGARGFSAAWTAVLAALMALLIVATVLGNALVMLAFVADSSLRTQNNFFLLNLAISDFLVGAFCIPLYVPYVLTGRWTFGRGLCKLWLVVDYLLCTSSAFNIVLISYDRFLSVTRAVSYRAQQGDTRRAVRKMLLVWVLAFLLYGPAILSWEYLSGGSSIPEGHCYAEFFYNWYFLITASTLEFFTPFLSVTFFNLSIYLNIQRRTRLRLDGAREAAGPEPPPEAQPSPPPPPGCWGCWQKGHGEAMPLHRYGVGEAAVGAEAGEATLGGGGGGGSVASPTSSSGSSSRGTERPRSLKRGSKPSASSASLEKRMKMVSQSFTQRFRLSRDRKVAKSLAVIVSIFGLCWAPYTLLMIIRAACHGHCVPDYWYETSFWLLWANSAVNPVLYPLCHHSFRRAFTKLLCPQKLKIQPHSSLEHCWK

Turning to `NCCCCCc1cnc[nH]1` [impentamine], the IC50 in data set [1] (with forskolin) was 4.68 µM; in data set [1] (without forskolin), 3.89 µM; in data set [2] (read-out: pIC50, 3H-cAMP accumulation (converted)), 0.00372 µM; in data set [4] (pIC50, CRE-SPAP, low potency component, CHO-H3-SPAP cells, absence of forskolin, with PTX pre-incubation), 5.13 µM; in data set [4] (pIC50, CRE-SPAP, low potency component, CHO-H3-SPAP cells, absence of forskolin, without PTX pre-incubation), 6.61 µM; in data set [4] (pIC50, CRE-SPAP, second component remaining after PTX, forskolin-stimulated CHO-H3-SPAP cells, 24 hours pre-incubation with PTX), 6.03 µM. In data set [4] (pIC50 Site 1, CRE-SPAP, first component of two-component response, forskolin-stimulated CHO-H3-SPAP cells), this compound gave an IC50 of 0.0257 µM. In data set [3], the “intracellular uptake of trypan blue” value is listed as “did not show any intracellular uptake of trypan blue”. The “agonist character in CRE-SPAP screen” value in data set [4] (inhibition of forskolin-stimulated CRE-SPAP production, CHO-H3-SPAP cells) is reported as “partial agonist actions”. In data set [4] (second component of two-component response, forskolin-stimulated CHO-H3-SPAP cells), the “pIC50 Site 2, CRE-SPAP” value was “Site 2 5.40 ± 0.05”.
Consider `c1cc(CN2CCCCC2)cc(OCCCNc2nc3ccccc3s2)c1` [zolatidine], for which the dissociation constant (Kd) in data set [5] was 0.282 µM. For the same compound, the “intrinsic activity response in 3H-cAMP accumulation” value in data set [2] (5 hours incubation with ligand, n = 4) is on record as “No responses”. For the same compound, the pKD values amounted to 6.46 ± 0.07 in data set [4] (agonist N-α-methylhistamine); 6.52 ± 0.06 in data set [4] (agonist R-α-methylhistamine); 6.54 ± 0.07 in data set [4] (agonist S-α-methylhistamine); 6.38 ± 0.10 in data set [4] (agonist VUF 8430); 6.51 ± 0.07 in data set [4] (agonist histamine); 6.62 ± 0.08 in data set [4] (agonist imetit). Besides, the pKD values in data set [4] (agonist immethridine) amounted to 6.66 ± 0.05; in data set [4] (agonist impentamine (first component of the response)), 6.52 ± 0.10; in data set [4] (agonist proxyfan), 6.78 ± 0.06. Further, the Schild slope in data set [4] (agonist N-α-methylhistamine) amounted to 1.10 ± 0.12; in data set [4] (agonist R-α-methylhistamine), 1.04 ± 0.04; in data set [4] (agonist S-α-methylhistamine) it was 1.10 ± 0.07; in data set [4] (agonist histamine), 1.01 ± 0.04; in data set [4] (agonist imetit), 1.17 ± 0.05; in data set [4] (agonist immepip), 1.18 ± 0.08. In addition, the Schild slope in data set [4] (agonist immethridine) is 0.96 ± 0.02; in data set [4] (agonist proxyfan), 0.91 ± 0.11.
